Among the data in US20140343000A1 (priority 2011, published 2014) are EC50 values, retold here.

Where only a bound is given, the exact number is not on record here.

The test system of the assay is recombinant NL4-3 virus (Renilla luciferase in nef, Gag P373S; NLRluc) in MT-2 cells. In words: whole plant or invertebrate. The following applies: Renilla, NL43, luciferase activity in cells infected for 4-5 days with NLRluc recombinants, serial dilutions of inhibitor; class symbols (key in Table 1); read-out: EC50. It is filed as cell-based, HIV. In short, it runs like this: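 MT-2 cells in RPMI 1640 with 10% heat-inactivated FBS were infected with the reporter virus, made by transfecting the proviral clone into 293T cells, and cultured 4-5 days with serial inhibitor dilutions. Antiviral activity was quantified from Renilla luciferase activity measured in lysed cells.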
As for `C=C(C)[C@@H]1CC[C@]2(NC(=O)N3CCNC(=O)C3CC(=O)O)CC[C@]3(C)[C@H](CC[C@@H]4[C@@]5(C)CC=C(c6ccc(C(=O)O)cc6)C(C)(C)[C@@H]5CC[C@]43C)[C@@H]12` (stereo partly drawn) [Example 56, 4-((1R,3aS,5aR,5bR,7aR,11aS,11bR,13aR,13bR)-3a-(2-(carboxymethyl)-3-oxopiperazine-1-carboxamido)-5a,5b,8,8,11a-pentamethyl-1-(prop-1-en-2-yl)-2,3,3a,4,5,5a,5b,6,7,7a,8,11,11a,11b,12,13,13a,13b-octadecahydro-1H-cyclopenta[a]chrysen-9-yl)benzoic acid], the EC50 is below 100 nM.
As for `C=C(C)[C@@H]1CC[C@]2(NC(=O)N3CCNC(=O)C3)CC[C@]3(C)[C@H](CC[C@@H]4[C@@]5(C)CC=C(c6ccc(C(=O)O)cc6)C(C)(C)[C@@H]5CC[C@]43C)[C@@H]12` [Example 57, 4-((1R,3aS,5aR,5bR,7aR,11aS,11bR,13aR,13bR)-5a,5b,8,8,11a-pentamethyl-3a-(3-oxopiperazine-1-carboxamido)-1-(prop-1-en-2-yl)-2,3,3a,4,5,5a,5b,6,7,7a,8,11,11a,11b,12,13,13a,13b-octadecahydro-1H-cyclopenta[a]chrysen-9-yl)benzoic acid], the figure is below 100 nM; as for `C=C(C)[C@@H]1CC[C@]2(NC(=O)N(CCN)CC(=O)O)CC[C@]3(C)[C@H](CC[C@@H]4[C@@]5(C)CC=C(c6ccc(C(=O)O)cc6)C(C)(C)[C@@H]5CC[C@]43C)[C@@H]12` [Example 58, 4-((1R,3aS,5aR,5bR,7aR,11aS,11bR,13aR,13bR)-3a-(3-(2-aminoethyl)-3-(carboxymethyl)ureido)-5a,5b,8,8,11a-pentamethyl-1-(prop-1-en-2-yl)-2,3,3a,4,5,5a,5b,6,7,7a,8,11,11a,11b,12,13,13a,13b-octadecahydro-1H-cyclopenta[a]chrysen-9-yl)benzoic acid], below 100 nM.
Regarding `C=C(C)[C@@H]1CC[C@]2(NC(=O)N3CCN(C(=O)OC(C)(C)C)CC3CC(=O)O)CC[C@]3(C)[C@H](CC[C@@H]4[C@@]5(C)CC=C(c6ccc(C(=O)O)cc6)C(C)(C)[C@@H]5CC[C@]43C)[C@@H]12` (stereo partly drawn) [Example 59, 4-((1R,3aS,5aR,5bR,7aR,11aS,11bR,13aR,13bR)-3a-(4-(tert-butoxycarbonyl)-2-(carboxymethyl)piperazine-1-carboxamido)-5a,5b,8,8,11a-pentamethyl-1-(prop-1-en-2-yl)-2,3,3a,4,5,5a,5b,6,7,7a,8,11,11a,11b,12,13,13a,13b-octadecahydro-1H-cyclopenta[a]chrysen-9-yl)benzoic acid], the EC50 was below 100 nM.
For the molecule `C=C(C)[C@@H]1CC[C@]2(NC(=O)NCCCCCN(C)C)CC[C@]3(C)[C@H](CC[C@@H]4[C@@]5(C)CC=C(c6ccc(C(=O)O)cc6)C(C)(C)[C@@H]5CC[C@]43C)[C@@H]12` [Example 60, 4-((1R,3aS,5aR,5bR,7aR,11aS,11bR,13aR,13bR)-3a-(3-(5-(dimethylamino)pentyl)ureido)-5a,5b,8,8,11a-pentamethyl-1-(prop-1-en-2-yl)-2,3,3a,4,5,5a,5b,6,7,7a,8,11,11a,11b,12,13,13a,13b-octadecahydro-1H-cyclopenta[a]chrysen-9-yl)benzoic acid], the EC50 is below 100 nM.
For `C=C(C)[C@@H]1CC[C@]2(NC(=O)N(CCO)CCN3CCS(=O)(=O)CC3)CC[C@]3(C)[C@H](CC[C@@H]4[C@@]5(C)CC=C(c6ccc(C(=O)O)cc6)C(C)(C)[C@@H]5CC[C@]43C)[C@@H]12` [Example 65, 4-((1R,3aS,5aR,5bR,7aR,11aS,11bR,13aR,13bR)-3a-(((2-(1,1-dioxido-4-thiomorpholinyl)ethyl)(2-hydroxyethyl)carbamoyl)amino)-1-isopropenyl-5a,5b,8,8,11a-pentamethyl-2,3,3a,4,5,5a,5b,6,7,7a,8,11,11a,11b,12,13,13a,13b-octadecahydro-1H-cyclopenta[a]chrysen-9-yl)benzoic acid] the value was below 100 nM; for `C=C(C)[C@@H]1CC[C@]2(NC(=O)N(CCCO)CCN3CCS(=O)(=O)CC3)CC[C@]3(C)[C@H](CC[C@@H]4[C@@]5(C)CC=C(c6ccc(C(=O)O)cc6)C(C)(C)[C@@H]5CC[C@]43C)[C@@H]12` [Example 66, 4-((1R,3aS,5aR,5bR,7aR,11aS,11bR,13aR,13bR)-3a-(((2-(1,1-dioxido-4-thiomorpholinyl)ethyl)(3-hydroxypropyl)carbamoyl)amino)-1-isopropenyl-5a,5b,8,8,11a-pentamethyl-2,3,3a,4,5,5a,5b,6,7,7a,8,11,11a,11b,12,13,13a,13b-octadecahydro-1H-cyclopenta[a]chrysen-9-yl)benzoic acid], below 100 nM.
As for `C=C(C)[C@@H]1CC[C@]2(NC(=O)N(CCOC)CCN3CCS(=O)(=O)CC3)CC[C@]3(C)[C@H](CC[C@@H]4[C@@]5(C)CC=C(c6ccc(C(=O)O)cc6)C(C)(C)[C@@H]5CC[C@]43C)[C@@H]12` [Example 67, 4-((1R,3aS,5aR,5bR,7aR,11aS,11bR,13aR,13bR)-3a-(((2-(1,1-dioxido-4-thiomorpholinyl)ethyl)(2-methoxyethyl)carbamoyl)amino)-1-isopropenyl-5a,5b,8,8,11a-pentamethyl-2,3,3a,4,5,5a,5b,6,7,7a,8,11,11a,11b,12,13,13a,13b-octadecahydro-1H-cyclopenta[a]chrysen-9-yl)benzoic acid], the figure is below 100 nM; as for `C=C(C)[C@@H]1CC[C@]2(NC(=O)N(CCCOC)CCN3CCS(=O)(=O)CC3)CC[C@]3(C)[C@H](CC[C@@H]4[C@@]5(C)CC=C(c6ccc(C(=O)O)cc6)C(C)(C)[C@@H]5CC[C@]43C)[C@@H]12` [Example 68, 4-((1R,3aS,5aR,5bR,7aR,11aS,11bR,13aR,13bR)-3a-(((2-(1,1-dioxido-4-thiomorpholinyl)ethyl)(3-methoxypropyl)carbamoyl)amino)-1-isopropenyl-5a,5b,8,8,11a-pentamethyl-2,3,3a,4,5,5a,5b,6,7,7a,8,11,11a,11b,12,13,13a,13b-octadecahydro-1H-cyclopenta[a]chrysen-9-yl)benzoic acid], below 100 nM.
For `C=C(C)[C@@H]1CC[C@]2(NC(=O)N(CCN3CCS(=O)(=O)CC3)CCN3CCS(=O)(=O)CC3)CC[C@]3(C)[C@H](CC[C@@H]4[C@@]5(C)CC=C(c6ccc(C(=O)O)cc6)C(C)(C)[C@@H]5CC[C@]43C)[C@@H]12` [Example 69, 4-((1R,3aS,5aR,5bR,7aR,11aS,11bR,13aR,13bR)-3a-((bis(2-(1,1-dioxido-4-thiomorpholinyl)ethyl)carbamoyl)amino)-1-isopropenyl-5a,5b,8,8,11a-pentamethyl-2,3,3a,4,5,5a,5b,6,7,7a,8,11,11a,11b,12,13,13a,13b-octadecahydro-1H-cyclopenta[a]chrysen-9-yl)benzoic acid], the concentration giving a half-maximal response (EC50) is below 100 nM.
As for `C=C(C)[C@@H]1CC[C@]2(NC(N)=O)CC[C@]3(C)[C@H](CC[C@@H]4[C@@]5(C)CC=C(c6ccc(C(=O)O)cc6)C(C)(C)[C@@H]5CC[C@]43C)[C@@H]12` [Example 69-1, 4-((1R,3aS,5aR,5bR,7aR,11aS,11bR,13aR,13bR)-5a,5b,8,8,11a-pentamethyl-1-(prop-1-en-2-yl)-3a-ureido-2,3,3a,4,5,5a,5b,6,7,7a,8,11,11a,11b,12,13,13a,13b-octadecahydro-1H-cyclopenta[a]chrysen-9-yl)benzoic acid], the figure is below 100 nM.
